Assay results as given in ChEMBL document CHEMBL1201862, “PubChem BioAssay data set” (2004).
The source made the active and inactive calls.

Tests used:
[1] = target: Cytochrome P450 2C9 (Homo sapiens, UniProt P11712); settings: Potency
[2] = target: NAD-dependent protein deacylase sirtuin-5, mitochondrial (Homo sapiens, UniProt Q9NXA8); test: sirtuin-5 deacylation blockers, concentration series – biochemical, fluorescence imaging, cherry-pick, set 5, dose response (AID 720591);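 further: desuccinylation of succinyl peptide AMC substrate read as fluorescence after trypsin release; potency of inhibitors that lower fluorescence and may act on trypsin instead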
Sequence of NAD-dependent protein deacylase sirtuin-5, mitochondrial (Q9NXA8 whole entry): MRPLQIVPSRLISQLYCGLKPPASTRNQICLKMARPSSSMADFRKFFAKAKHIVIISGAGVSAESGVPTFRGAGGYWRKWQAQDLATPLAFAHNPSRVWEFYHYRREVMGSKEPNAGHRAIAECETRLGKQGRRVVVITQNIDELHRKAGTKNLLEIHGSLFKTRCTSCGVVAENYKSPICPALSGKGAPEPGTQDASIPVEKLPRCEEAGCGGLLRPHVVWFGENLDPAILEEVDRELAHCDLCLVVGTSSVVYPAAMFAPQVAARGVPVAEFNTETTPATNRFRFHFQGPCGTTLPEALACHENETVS

[3] = target: FAD-linked sulfhydryl oxidase ALR (Homo sapiens, UniProt P55789); test: ALR-catalysed DTT oxidation blockers – biochemical, H2O2 detection, luminescence, cherry-pick, dose response (AID 493248)
Sequence of FAD-linked sulfhydryl oxidase ALR (P55789 whole entry, the tested form may be a part): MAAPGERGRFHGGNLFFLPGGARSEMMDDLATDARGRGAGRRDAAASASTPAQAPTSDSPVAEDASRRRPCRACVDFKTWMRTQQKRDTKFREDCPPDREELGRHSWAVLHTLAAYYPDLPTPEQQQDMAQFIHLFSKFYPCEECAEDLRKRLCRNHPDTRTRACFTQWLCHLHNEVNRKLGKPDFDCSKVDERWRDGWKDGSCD

[4] = target: T1, Carboxy-terminal domain RNA polymerase II polypeptide A small phosphatase 1 (Homo sapiens, UniProt Q9GZU7); test: CTDSP1 inhibitors, concentration-response, biochemical, absorbance readout, ultra-high-throughput screen actives (AID 540297); assay type: functional
T1 sequence (Q9GZU7 whole entry): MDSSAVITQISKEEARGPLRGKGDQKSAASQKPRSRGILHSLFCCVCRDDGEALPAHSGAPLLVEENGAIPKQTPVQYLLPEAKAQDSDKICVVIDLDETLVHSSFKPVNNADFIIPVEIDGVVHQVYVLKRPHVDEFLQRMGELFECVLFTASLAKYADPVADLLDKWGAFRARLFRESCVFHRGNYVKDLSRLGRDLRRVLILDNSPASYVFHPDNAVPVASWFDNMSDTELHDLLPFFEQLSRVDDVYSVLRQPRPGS

[5] = target: T2, Caspase-6 (Homo sapiens, UniProt P55212); test: inhibition of CASP6 peptide cleavage – biochemical, VEID-R110 fluorescence, cherry-pick, dose response (AID 720632)
T2 sequence (P55212 whole entry): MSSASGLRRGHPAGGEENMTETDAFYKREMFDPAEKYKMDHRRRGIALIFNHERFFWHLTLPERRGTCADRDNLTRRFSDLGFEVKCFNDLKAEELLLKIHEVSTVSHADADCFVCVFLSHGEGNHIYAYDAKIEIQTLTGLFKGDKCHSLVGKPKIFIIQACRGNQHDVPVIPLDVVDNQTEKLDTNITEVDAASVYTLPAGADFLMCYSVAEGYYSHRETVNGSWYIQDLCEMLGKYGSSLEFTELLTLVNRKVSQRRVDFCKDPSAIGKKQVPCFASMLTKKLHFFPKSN

[6] = target: T3, Mannose-6-phosphate isomerase (Homo sapiens, UniProt P34949); test: MPI inhibition at elevated mannose 6-phosphate – biochemical, fluorescence intensity, high mannose 6-phosphate, primary screen (AID 1220)
T3 sequence (P34949 whole entry): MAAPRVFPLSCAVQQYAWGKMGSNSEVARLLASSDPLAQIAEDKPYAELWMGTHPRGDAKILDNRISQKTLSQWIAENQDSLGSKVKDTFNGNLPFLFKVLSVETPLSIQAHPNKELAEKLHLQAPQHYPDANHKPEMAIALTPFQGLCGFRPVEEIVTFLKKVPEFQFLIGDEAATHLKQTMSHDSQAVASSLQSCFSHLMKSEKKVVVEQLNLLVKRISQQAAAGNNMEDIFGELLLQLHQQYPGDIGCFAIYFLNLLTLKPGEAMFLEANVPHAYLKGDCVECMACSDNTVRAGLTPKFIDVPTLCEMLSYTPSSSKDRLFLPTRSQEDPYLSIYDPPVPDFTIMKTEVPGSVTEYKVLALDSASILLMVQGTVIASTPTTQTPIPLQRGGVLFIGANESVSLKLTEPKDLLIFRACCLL

[7] = reduced cellular PGC1a acetyl-lysine signal – cell-based, cherry-picked samples, dose response (AID 720514); assay type: functional;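 further: potency may reflect raised or lowered acetylation signal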
[8] = target: T4, RNA-binding protein pos-1 (Caenorhabditis elegans, UniProt G5EF15); test: disruptors of C. elegans POS-1 RNA interaction – biochemical, fluorescence polarization, dose response (AID 1964);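 further: purified POS-1 fused to maltose binding protein made in E. coli; potency of compounds blocking POS-1 binding to fluorescent RNA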
T4 sequence (G5EF15 whole entry): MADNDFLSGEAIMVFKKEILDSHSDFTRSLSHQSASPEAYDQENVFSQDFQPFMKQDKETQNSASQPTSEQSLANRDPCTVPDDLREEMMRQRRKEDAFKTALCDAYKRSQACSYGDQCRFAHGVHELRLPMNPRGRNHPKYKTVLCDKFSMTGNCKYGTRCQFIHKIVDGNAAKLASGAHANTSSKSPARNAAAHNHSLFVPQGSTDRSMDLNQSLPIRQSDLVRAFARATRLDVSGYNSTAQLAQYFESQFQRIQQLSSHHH

[9] = target: Nonstructural protein 1 (Influenza A virus, UniProt Q194T2); assay type: functional, Influenza A virus (A/California/07/2009(H1N1))
Sequence of Nonstructural protein 1 (Q194T2 whole entry): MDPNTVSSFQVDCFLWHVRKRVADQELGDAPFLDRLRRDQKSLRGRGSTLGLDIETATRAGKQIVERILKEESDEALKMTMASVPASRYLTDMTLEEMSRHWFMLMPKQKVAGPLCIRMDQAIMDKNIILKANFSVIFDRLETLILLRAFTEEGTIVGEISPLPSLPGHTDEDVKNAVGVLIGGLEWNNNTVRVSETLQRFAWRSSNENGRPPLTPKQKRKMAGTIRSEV

[10] = target: Genome polyprotein (dengue virus type 2, UniProt P29990); test: flavivirus cap methylation enzyme inhibition – biochemical, confirmation dose response, primary screen (AID 588689); assay type: functional
Sequence of Genome polyprotein (P29990 2492-3391 limits assumed): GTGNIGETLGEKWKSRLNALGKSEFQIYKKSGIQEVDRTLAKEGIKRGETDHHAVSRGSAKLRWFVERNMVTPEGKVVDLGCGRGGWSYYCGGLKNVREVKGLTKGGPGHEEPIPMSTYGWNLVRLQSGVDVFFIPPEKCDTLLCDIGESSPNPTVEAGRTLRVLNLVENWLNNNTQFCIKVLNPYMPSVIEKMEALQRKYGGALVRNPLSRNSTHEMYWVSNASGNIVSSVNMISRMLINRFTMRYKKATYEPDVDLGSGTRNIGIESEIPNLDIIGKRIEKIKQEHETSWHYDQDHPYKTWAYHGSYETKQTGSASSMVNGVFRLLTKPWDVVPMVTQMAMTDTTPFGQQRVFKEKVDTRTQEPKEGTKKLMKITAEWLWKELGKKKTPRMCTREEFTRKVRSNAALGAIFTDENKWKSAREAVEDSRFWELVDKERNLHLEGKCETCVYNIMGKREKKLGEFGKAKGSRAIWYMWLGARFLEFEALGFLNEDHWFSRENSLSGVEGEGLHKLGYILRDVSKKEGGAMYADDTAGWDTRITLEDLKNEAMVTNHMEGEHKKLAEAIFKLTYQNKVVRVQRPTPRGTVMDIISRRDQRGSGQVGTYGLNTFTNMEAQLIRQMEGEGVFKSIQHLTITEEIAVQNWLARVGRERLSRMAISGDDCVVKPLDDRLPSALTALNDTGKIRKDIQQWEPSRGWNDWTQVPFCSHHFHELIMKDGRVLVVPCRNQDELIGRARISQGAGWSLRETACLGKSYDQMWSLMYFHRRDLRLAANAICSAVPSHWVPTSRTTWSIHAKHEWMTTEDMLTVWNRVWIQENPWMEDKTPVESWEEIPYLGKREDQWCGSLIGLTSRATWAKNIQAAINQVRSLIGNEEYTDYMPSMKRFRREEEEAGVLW

[11] = Luminescence Cell-Based Dose Confirmation HTS to Identify Activators of 5'UTR Stem-Loop Driven Alpha-Synuclein mRNA Translation in H4 Neuroglioblastoma Cells. [Related pubchem assays: 1829 (Project Summary), 1814 (Primary HTS)]; assay type: functional
[12] = Luminescence Cell-Based Dose Response HTS to Identify Activators of Luciferase Translation or Activity in H4 […] Cells. [Related pubchem assays: 1829 (Project Summary), 1814 (Primary HTS)]; assay type: functional
[13] = test system: H4; test: Luminescence Cell-Based Dose Response HTS to Identify Activators of 5'UTR Stem-Loop Driven Prion Protein mRNA Translation in H4 Neuroglioblastoma Cells. [Related pubchem assays: 1829 (Project Summary), 1814 (Primary HTS)]; assay type: functional; settings: Homo sapiens
[14] = target: Protein-tyrosine kinase 2-beta (Homo sapiens, UniProt Q14289);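 further: potency of inhibitors of PYK2 kinase phosphorylation of poly-GT substrate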
Sequence of Protein-tyrosine kinase 2-beta (Q14289 whole entry): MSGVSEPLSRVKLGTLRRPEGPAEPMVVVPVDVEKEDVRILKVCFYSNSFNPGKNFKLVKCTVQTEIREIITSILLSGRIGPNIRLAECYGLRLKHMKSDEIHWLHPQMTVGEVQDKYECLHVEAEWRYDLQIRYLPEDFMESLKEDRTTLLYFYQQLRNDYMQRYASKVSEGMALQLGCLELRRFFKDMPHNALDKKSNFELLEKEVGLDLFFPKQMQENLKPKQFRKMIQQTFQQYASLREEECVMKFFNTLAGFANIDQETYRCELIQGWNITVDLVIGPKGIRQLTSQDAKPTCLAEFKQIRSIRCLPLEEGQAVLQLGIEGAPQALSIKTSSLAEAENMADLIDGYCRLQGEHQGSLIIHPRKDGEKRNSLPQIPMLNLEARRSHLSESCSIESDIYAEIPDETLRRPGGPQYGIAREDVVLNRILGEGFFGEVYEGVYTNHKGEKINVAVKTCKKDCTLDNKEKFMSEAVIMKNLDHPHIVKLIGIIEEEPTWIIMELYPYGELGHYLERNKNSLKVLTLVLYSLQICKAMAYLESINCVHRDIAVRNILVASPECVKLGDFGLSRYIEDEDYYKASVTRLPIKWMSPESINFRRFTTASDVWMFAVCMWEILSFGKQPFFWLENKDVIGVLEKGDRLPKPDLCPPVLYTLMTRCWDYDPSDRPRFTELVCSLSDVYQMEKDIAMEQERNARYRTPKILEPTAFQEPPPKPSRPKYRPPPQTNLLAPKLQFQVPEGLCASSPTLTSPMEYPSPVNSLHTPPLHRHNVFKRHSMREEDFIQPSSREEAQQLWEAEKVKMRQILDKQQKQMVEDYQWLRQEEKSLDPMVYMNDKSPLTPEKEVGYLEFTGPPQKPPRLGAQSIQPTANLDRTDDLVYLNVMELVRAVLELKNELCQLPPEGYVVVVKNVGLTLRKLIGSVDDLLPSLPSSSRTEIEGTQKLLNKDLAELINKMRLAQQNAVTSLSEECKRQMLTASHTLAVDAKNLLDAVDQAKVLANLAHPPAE

[15] = target: Dual specificity tyrosine-phosphorylation-regulated kinase 1A (Rattus norvegicus, UniProt Q63470); assay type: biochemical, Homo sapiens
[16] = target: T5, Methionyl-tRNA synthetase, putative (Trypanosoma brucei brucei, UniProt Q38C91); assay type: functional, Trypanosoma brucei brucei strain 927/4 GUTat10.1
T5 sequence (Q38C91 whole entry): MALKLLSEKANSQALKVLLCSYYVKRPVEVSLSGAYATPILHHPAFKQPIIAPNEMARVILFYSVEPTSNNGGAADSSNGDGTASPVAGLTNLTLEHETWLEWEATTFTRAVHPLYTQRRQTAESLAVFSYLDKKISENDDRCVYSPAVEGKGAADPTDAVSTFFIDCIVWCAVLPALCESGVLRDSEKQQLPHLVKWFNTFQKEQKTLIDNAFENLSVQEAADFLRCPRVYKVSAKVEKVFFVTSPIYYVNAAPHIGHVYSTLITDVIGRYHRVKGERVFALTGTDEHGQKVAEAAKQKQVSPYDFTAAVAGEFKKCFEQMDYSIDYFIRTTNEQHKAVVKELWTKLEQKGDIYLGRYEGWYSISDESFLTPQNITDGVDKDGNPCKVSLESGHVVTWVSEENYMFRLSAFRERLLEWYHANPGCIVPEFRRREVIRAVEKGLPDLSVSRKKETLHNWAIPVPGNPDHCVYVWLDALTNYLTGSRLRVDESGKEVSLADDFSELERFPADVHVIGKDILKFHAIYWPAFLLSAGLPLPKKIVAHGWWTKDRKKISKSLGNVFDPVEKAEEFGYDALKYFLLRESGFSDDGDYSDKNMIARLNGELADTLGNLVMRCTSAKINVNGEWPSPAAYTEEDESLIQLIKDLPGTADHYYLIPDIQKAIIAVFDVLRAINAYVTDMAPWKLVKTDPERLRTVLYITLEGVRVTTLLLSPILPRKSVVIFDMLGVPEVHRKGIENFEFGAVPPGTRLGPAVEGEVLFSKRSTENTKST

[17] = Counterscreen for inhibitors of Trypanosoma brucei methionyl tRNA synthetase (MetRS): Luminescence-based cell-based high throughput dose response assay to identify compounds that are cytotoxic to Jurkat human T lymphocyte cells.; assay type: functional
[18] = target: T5, Methionyl-tRNA synthetase, putative; assay type: functional, Trypanosoma brucei brucei strain 927/4 GUTat10.1; remark: listed apart in the source
[19] = HIV-1 Vif–A3G interaction blockers – biochemical, TR-FRET, GST-Vif 1-94, biotin-A3G peptide, dose response retest, primary screen (AID 1117319); assay type: functional;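 further: TR-FRET signal of purified GST-Vif binding a biotinylated A3G peptide; inhibitors lower the FRET signal by blocking Vif and A3G binding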

Sequence of Cytochrome P450 2C9 (P11712 whole entry): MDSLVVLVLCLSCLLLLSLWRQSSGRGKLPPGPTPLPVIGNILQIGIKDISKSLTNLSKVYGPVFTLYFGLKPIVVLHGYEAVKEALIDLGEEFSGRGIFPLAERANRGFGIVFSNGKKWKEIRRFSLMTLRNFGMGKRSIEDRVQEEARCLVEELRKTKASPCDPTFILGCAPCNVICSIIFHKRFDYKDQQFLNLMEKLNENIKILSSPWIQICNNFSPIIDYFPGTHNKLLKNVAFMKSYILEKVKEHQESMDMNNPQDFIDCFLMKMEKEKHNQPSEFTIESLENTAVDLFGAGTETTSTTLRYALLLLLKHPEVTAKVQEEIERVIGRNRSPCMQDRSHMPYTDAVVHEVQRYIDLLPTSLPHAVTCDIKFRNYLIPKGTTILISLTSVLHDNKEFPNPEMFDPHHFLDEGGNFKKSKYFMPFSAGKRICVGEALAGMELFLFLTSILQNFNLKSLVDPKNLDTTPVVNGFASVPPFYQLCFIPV

In the case of `CC(C)[C@@]1(NC(=O)[C@@H]2C=C3c4cccc5[nH]cc(c45)C[C@@H]3N(C)C2)O[C@]2(O)[C@H]3CCCN3C(=O)[C@H](Cc3ccccc3)N2C1=O`, the AC50 [1] is reported as 10 µM (inconclusive).
In the case of `COc1ccc(NS(=O)(=O)c2cccc(C(=O)N3CCCC(C)C3)c2)cc1` (stereo not drawn), the AC50 [2] is reported as 28.4 µM (active).
With `CSc1ccc(NC(=O)Nc2ccc(C(=O)NCC(=O)O)cc2)cc1` the AC50 [3] was 2.47 µM (active), the IC50 [4] was 3.17 µM (active) and the AC50 [5] was 18.4 µM (active).
In the case of `O=C(O)c1ccc(Nc2nc(-c3ccccc3)nc3ccccc23)cc1`, the AC50 [2] is reported as 17.9 µM (active).
With `COc1ccc(CNc2cc(NCCCO)c([N+](=O)[O-])c3nonc23)cc1` the IC50 [6] was > 50 µM (not active).
In the case of `Cc1cc(C)[n+]2ncn(C)c2n1`, the IC50 [6] is reported as > 50 µM (not active).
For `CC(C(=O)Nc1ccc(S(=O)(=O)N2CCOCC2)cc1)N1CCN(c2ccccn2)CC1` (stereo not drawn), the AC50 [2] was > 30 µM (inactive).
For `C[C@H]1CN([C@@H](C)CO)S(=O)(=O)c2ccc(-c3ccccc3)cc2O[C@@H]1CN(C)Cc1cccc(F)c1`, the AC50 [7] was 7.93 µM (active).
For `Oc1ccc(/C=N/Nc2ccc(Cl)nn2)c(O)c1O`, the EC50 [8] was 50 µM (inconclusive), the IC50 [9] was 2.08 µM (active) and the IC50 [10] was 16.4 µM (active). For the same compound, the AC50 [5] was 1.1 µM (active).
With `c1ccc2c3c([nH]c2c1)-c1n[nH]cc1CC3` the EC50 [11] was > 120 µM (not active), the EC50 [12] was 18.7 µM (active) and the EC50 [13] was > 120 µM (not active). The IC50 [14] was 10.5 µM (not active), the AC50 [15] was 3.79 µM (active) and the IC50 [16] was 26.7 µM (inactive). For the same compound, the IC50 [17] was 83.4 µM (inactive) and the IC50 [18] was 52.1 µM (inactive).
With `c1ccc(Nc2ccccn2)cc1` the IC50 [19] was > 100 µM (active).
